# From patent US20190169140A1, “IDO1 INHIBITOR AND PREPARATION METHOD AND APPLICATION THEREOF” (SHANDONG LUYE PHARMACEUTICAL CO., LTD., priority 2016, published 2019)
# pIC50: −log10 of the molar value.
# Key:
# [1] = Death and body weight of tumor-bearing mice (CT26 model); assay type: in vivo
# Method: Therefore, the dose of the two compounds, compound 360 and compound 117, in the present experiment was set as 100 mg/kg. In order to observe dose-efficacy relevance of 231, a dose of the compound 231 was set as 25, 50, 100, 200 mg/kg in the present experiment. All drugs were administered by gavage, twice a day.
# The day of tumor inoculation was defined as Day 0, and the inoculated animals were grouped randomly on the day of inoculation. One day after the inoculation (Day 1), the administration was started. The experiment had 7 groups in total, with 12 animals in each group. See details in Table 12 for information on animal grouping and administration.
# (3) As for animal weight, body weight of the mouse was weighed each time when the tumor diameter was measured or before the administration, and death of the animals was observed once a day.
# 7.1 Death and Body Weight of Tumor-Bearing Mice
# [2] = Test for permeability across Caco2; assay type: in vitro ADME; conditions: human, Caco-2
# Method: 2. Test for Permeability Across Caco2
# A sample for test was dissolved in dimethyl sulfoxide (DMSO) or other suitable solvents, to be prepared into 10 mM stock solution. A suitable internal standard
# Fenoterol, propranolol, and digoxin acted as low-permeability control, high-permeability control, and P-gp (P-glycoprotein) substrate, respectively, in the present research. The stock solutions of these compounds were prepared with DMSO, stocked at 2-8° C., and valid for use within 3 months.
# In the present project, a Hank's balanced salt buffer containing 10 mM HEPES was used as a transport buffer.
# Caco-2 cells were cultivated using MEM culture media (Minimum Essential Media), with a culture condition of 37±1° C., 5% CO2, and saturated relative humidity. Afterwards, the cells were inoculated into a BD Transwell-96-well plate, with an inoculation density of 1×10^5 cells/cm^2, then the cells were placed in a carbon dioxide incubator to be incubated for 21-28 days, and then used for a transport experiment.
# The sample for test and digoxin with donation concentration of 2 μM were administered in two directions (direction A-B and direction B-A), each in duplicate. Fenoterol and propranolol each with test concentration of 2 μM were administered in a single direction (direction A-B), each in duplicate.
# A solution to be used was placed in a 37±1° C. water bath kettle to be pre-incubated for 30 minutes. The donor solution and the receiver solution were respectively added to corresponding sides of well of cell plate (to each apical sides and each basolateral sides, 75 μL and 250 μL of samples were added respectively), and experiment of bidirectional transport was started. After addition of the samples, the cell plate was placed in a 37±1° C., 5% CO2 incubator with saturated relative humidity to be incubated for 120 minutes.
# The samples were all centrifuged at 3220 g for 10 minutes after being shaken in a vortex manner. A suitable volume of a supernatant was transferred to a sample analyzing plate. If analysis was not carried out immediately after the plate was sealed, the plate was stored at 2-8° C. The analysis was carried out through a method of LC/MS/MS.
# The sample for test, the fenoterol control, propranolol control, and digoxin were analyzed in a semiquantitative manner, and specific values of analytes to a peak area of the internal standard were taken as concentration of the controls.
# [3] = target: T1, IDO1 enzyme in Hela cells (Homo sapiens, UniProt P14902); assay: Test of hIDO1 for cytological activity (Hela cell kynurenine by LCMS, interferon-γ induced); assay type: cell-based; conditions: interferon-γ 100 ng/ml, 20 hours
# T1 construct: endogenous in cells; host or cells: Hela cells, induced with recombinant human interferon-γ
# T1 sequence (P14902 whole entry): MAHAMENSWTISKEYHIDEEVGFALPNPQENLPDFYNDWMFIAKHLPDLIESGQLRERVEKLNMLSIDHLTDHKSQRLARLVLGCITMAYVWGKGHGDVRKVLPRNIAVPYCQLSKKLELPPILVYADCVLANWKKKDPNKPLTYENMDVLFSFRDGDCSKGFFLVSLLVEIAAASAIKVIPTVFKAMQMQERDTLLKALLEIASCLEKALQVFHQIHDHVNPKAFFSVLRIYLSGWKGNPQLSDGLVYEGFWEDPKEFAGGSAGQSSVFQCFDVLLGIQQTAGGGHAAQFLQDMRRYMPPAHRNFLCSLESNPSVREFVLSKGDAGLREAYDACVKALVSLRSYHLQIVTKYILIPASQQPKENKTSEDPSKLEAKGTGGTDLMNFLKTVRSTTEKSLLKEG
# Method: 2. Test of hIDO1 for Cytological Activity
# Changes in Hela cell kynurenine were detected by an LCMS method. With an IC50 value of a compound as an index, an inhibitory effect of the compound on IDO1 enzyme was evaluated.
# The culture medium, trypsin, and DPBS were preheated in water bath at 37° C. The culture medium was removed by sucking from cell culture, followed by cleaning the cell culture with 10 mL of DPBS; the preheated trypsin was added to the culture flask, which was revolved to make the culture flask covered by trypsin uniformly, and placed into an incubator at 37° C. with 5% CO2 for digestion for 1-2 minutes; 10-15 mL of the culture medium was used to suspend cells each T150, followed by centrifugation at 800 rpm for 5 minutes. 10 mL of the culture medium was used to resuspend the cells. 1 mL of the cell resuspension was pipetted, and counted with Vi-cell; the Hela cells were diluted to 5×10^5/mL with the culture medium, 80 μL of the diluted Hela cells were added to the 96-well cell plate, and incubated in the an incubator at 37° C. with 5% CO2 for 5-6 hours.
# The compound was diluted with DMSO to 1 mM, with 9 gradients, each 3-fold dilution, in duplicate. 5 μL of the already diluted compound DMSO solution was added to the compound plate containing 95 μL of the culture medium. After even mixing, 10 μL of the mixture was transferred to the cell plate.
# 10 μL of recombinant human interferon-γ was added to result in a final concentration of 100 ng/ml, to induce expression of IDO1. Incubation was carried out in the 5% CO2 incubator at 37° C. for 20 hours. 4 μL of 5% (w/v) trichloroacetic acid was added, followed by even mixing and incubation at 50° C. for 30 minutes. After centrifugation at 2400 rpm for 10 minutes, 40 μL of a supernatant was added to a 96-well V-bottom plate, followed by addition of a precipitant. Centrifugation was carried out at 4000 rpm for 10 minutes after even mixing. 100 μL of the supernatant was transferred to a new 96-well V-bottom plate. A content of kynurenine was detected through LCMS.
# A reference well to which the interferon-γ was added but no compound was added was set to have an inhibition rate of 0%, and a reference well to which no Hela cell was added was set to have an inhibition rate of 100%. Data was analyzed with XLFit 5 to calculate an IC50 value of the compound.
smiles,measurement,setting,value
NS(=O)(=O)NCCSc1nonc1/C(=N/O)Nc1ccc(F)c(Br)c1 [Compound 0117],Rate of Weight Change of D17 vs D1,[1]; 100 mg/kg gavage BID,8.5%
same,body weight compared with the control group when the experiment was ended,[1]; 100 mg/kg gavage BID,remarkably decreased weight
same,Body weight of tumor-bearing mice,"[1]; 100 mg/kg gavage BID, D12",23.1 g
same,Body weight of tumor-bearing mice,"[1]; 100 mg/kg gavage BID, D14",23.3 g
same,Body weight of tumor-bearing mice,"[1]; 100 mg/kg gavage BID, D17",24.2 g
same,Body weight of tumor-bearing mice,"[1]; 100 mg/kg gavage BID, Day1",22.3 g
same,Body weight of tumor-bearing mice,"[1]; 100 mg/kg gavage BID, Day3",22.7 g
same,Body weight of tumor-bearing mice,"[1]; 100 mg/kg gavage BID, Day6",22.7 g
same,Body weight of tumor-bearing mice,"[1]; 100 mg/kg gavage BID, Day8",21.8 g
same,Body weight of tumor-bearing mice,"[1]; 100 mg/kg gavage BID, Day10",22.9 g
same,"Papp A→B at 120 min, 2 µM",[2],2.97 ×10⁻⁶ cm/s
same,"Papp B→A at 120 min, 2 µM",[2],12.2 ×10⁻⁶ cm/s
same,pIC50,[3],8.23
"NS(=O)(=O)NCCNc1nonc1C(=NO)Nc1ccc(F)c(Br)c1 [Compound 360, INCB024360, reference compound]",Rate of Weight Change of D17 vs D1,[1]; 100 mg/kg gavage BID,9.4%
same,body weight compared with the control group when the experiment was ended,[1]; 100 mg/kg gavage BID,no significant difference
same,Body weight of tumor-bearing mice,"[1]; 100 mg/kg gavage BID, D12",24.5 g
same,Body weight of tumor-bearing mice,"[1]; 100 mg/kg gavage BID, D14",25.0 g
same,Body weight of tumor-bearing mice,"[1]; 100 mg/kg gavage BID, D17",25.3 g
same,Body weight of tumor-bearing mice,"[1]; 100 mg/kg gavage BID, Day1",23.2 g
same,Body weight of tumor-bearing mice,"[1]; 100 mg/kg gavage BID, Day3",23.5 g
same,Body weight of tumor-bearing mice,"[1]; 100 mg/kg gavage BID, Day6",23.7 g
same,Body weight of tumor-bearing mice,"[1]; 100 mg/kg gavage BID, Day8",23.5 g
same,Body weight of tumor-bearing mice,"[1]; 100 mg/kg gavage BID, Day10",23.9 g
same,"Papp A→B at 120 min, 2 µM",[2],0.39 ×10⁻⁶ cm/s
same,"Papp B→A at 120 min, 2 µM",[2],19.6 ×10⁻⁶ cm/s
NS(=O)(=O)NCCOc1nonc1/C(=N/O)Nc1ccc(F)c(Br)c1 [Compound 0015],pIC50,[3],7.85
NC(=O)NCCSc1nonc1/C(=N/O)Nc1ccc(F)c(Br)c1 [Compound 0231],Rate of Weight Change of D17 vs D1,[1]; 25 mg/kg gavage BID,12.0%
same,body weight compared with the control group when the experiment was ended,[1]; 25 mg/kg gavage BID,no significant difference
same,Body weight of tumor-bearing mice,"[1]; 25 mg/kg gavage BID, D12",23.9 g
same,Body weight of tumor-bearing mice,"[1]; 25 mg/kg gavage BID, D14",24.4 g
same,Body weight of tumor-bearing mice,"[1]; 25 mg/kg gavage BID, D17",25.2 g
same,Body weight of tumor-bearing mice,"[1]; 25 mg/kg gavage BID, Day1",22.5 g
same,Body weight of tumor-bearing mice,"[1]; 25 mg/kg gavage BID, Day3",21.5 g
same,Body weight of tumor-bearing mice,"[1]; 25 mg/kg gavage BID, Day6",23.3 g
same,Body weight of tumor-bearing mice,"[1]; 25 mg/kg gavage BID, Day8",23.0 g
same,Body weight of tumor-bearing mice,"[1]; 25 mg/kg gavage BID, Day10",23.1 g
same,Rate of Weight Change of D17 vs D1,[1]; 50 mg/kg gavage BID,7.5%
same,body weight compared with the control group when the experiment was ended,[1]; 50 mg/kg gavage BID,remarkably decreased weight
same,Body weight of tumor-bearing mice,"[1]; 50 mg/kg gavage BID, D12",23.4 g
same,Body weight of tumor-bearing mice,"[1]; 50 mg/kg gavage BID, D14",24.2 g
same,Body weight of tumor-bearing mice,"[1]; 50 mg/kg gavage BID, D17",24.5 g
same,Body weight of tumor-bearing mice,"[1]; 50 mg/kg gavage BID, Day1",22.8 g
same,Body weight of tumor-bearing mice,"[1]; 50 mg/kg gavage BID, Day3",23.0 g
same,Body weight of tumor-bearing mice,"[1]; 50 mg/kg gavage BID, Day6",22.7 g
same,Body weight of tumor-bearing mice,"[1]; 50 mg/kg gavage BID, Day8",22.6 g
same,Body weight of tumor-bearing mice,"[1]; 50 mg/kg gavage BID, Day10",23.2 g
same,Rate of Weight Change of D17 vs D1,[1]; 100 mg/kg gavage BID,8.4%
same,body weight compared with the control group when the experiment was ended,[1]; 100 mg/kg gavage BID,remarkably decreased weight
same,Body weight of tumor-bearing mice,"[1]; 100 mg/kg gavage BID, D12",23.5 g
same,Body weight of tumor-bearing mice,"[1]; 100 mg/kg gavage BID, D14",24.3 g
same,Body weight of tumor-bearing mice,"[1]; 100 mg/kg gavage BID, D17",24.4 g
same,Body weight of tumor-bearing mice,"[1]; 100 mg/kg gavage BID, Day1",22.5 g
same,Body weight of tumor-bearing mice,"[1]; 100 mg/kg gavage BID, Day3",22.7 g
same,Body weight of tumor-bearing mice,"[1]; 100 mg/kg gavage BID, Day6",22.8 g
same,Body weight of tumor-bearing mice,"[1]; 100 mg/kg gavage BID, Day8",23.2 g
same,Body weight of tumor-bearing mice,"[1]; 100 mg/kg gavage BID, Day10",23.4 g
same,Rate of Weight Change of D17 vs D1,[1]; 200 mg/kg gavage BID,4.4%
same,body weight compared with the control group when the experiment was ended,[1]; 200 mg/kg gavage BID,remarkably decreased weight
same,Body weight of tumor-bearing mice,"[1]; 200 mg/kg gavage BID, D12",22.3 g
same,Body weight of tumor-bearing mice,"[1]; 200 mg/kg gavage BID, D14",22.9 g
same,Body weight of tumor-bearing mice,"[1]; 200 mg/kg gavage BID, D17",23.7 g
same,Body weight of tumor-bearing mice,"[1]; 200 mg/kg gavage BID, Day1",22.7 g
same,Body weight of tumor-bearing mice,"[1]; 200 mg/kg gavage BID, Day3",23.2 g
same,Body weight of tumor-bearing mice,"[1]; 200 mg/kg gavage BID, Day6",20.8 g
same,Body weight of tumor-bearing mice,"[1]; 200 mg/kg gavage BID, Day8",21.9 g
same,Body weight of tumor-bearing mice,"[1]; 200 mg/kg gavage BID, Day10",22.0 g
same,"Papp A→B at 120 min, 2 µM",[2],2.58 ×10⁻⁶ cm/s
same,"Papp B→A at 120 min, 2 µM",[2],20.1 ×10⁻⁶ cm/s
same,pIC50,[3],8.36
CC(=O)NCCSc1nonc1/C(=N/O)Nc1ccc(F)c(Br)c1 [Compound 0227],pIC50,[3],8.51
